Test [1] in a line: loss of viability in HepG2 cells – cell-based, CellTiter-Glo, cherry-picked, cytotoxicity control for Shn3 inhibitor project, dose response (AID 624134). It is filed as functional. Background: ATP-based viability assays read luminescence as a measure of living cells.
For a further test, the system named is Jurkat. Briefly: SAR Analysis of small molecule inhibitors of T-cell specific antigen receptor-induced NF-kB activation in a Jurkat cell line using a luminescence assay - Set 2. [Related pubchem assays (depositor defined):AID435003, AID435012, AID465]. The following applies: Homo sapiens. It is filed as functional, cell-based.
The next test in a line: cells. It is filed as functional, cell-based.
In test [2] the target is Cystic fibrosis transmembrane conductance regulator/Golgi-associated PDZ and coiled-coil motif-containing protein (Homo sapiens, UniProt P13569+Q9HD26). Briefly: potency against CAL PDZ-peptide interaction – biochemical, fluorescence polarization, Cerulean-tagged CAL PDZ, cherry-picks, dose response (AID 504773).
Chain of Cystic fibrosis transmembrane conductance regulator/Golgi-associated PDZ and coiled-coil motif-containing protein (P13569 whole entry, other chains not shown): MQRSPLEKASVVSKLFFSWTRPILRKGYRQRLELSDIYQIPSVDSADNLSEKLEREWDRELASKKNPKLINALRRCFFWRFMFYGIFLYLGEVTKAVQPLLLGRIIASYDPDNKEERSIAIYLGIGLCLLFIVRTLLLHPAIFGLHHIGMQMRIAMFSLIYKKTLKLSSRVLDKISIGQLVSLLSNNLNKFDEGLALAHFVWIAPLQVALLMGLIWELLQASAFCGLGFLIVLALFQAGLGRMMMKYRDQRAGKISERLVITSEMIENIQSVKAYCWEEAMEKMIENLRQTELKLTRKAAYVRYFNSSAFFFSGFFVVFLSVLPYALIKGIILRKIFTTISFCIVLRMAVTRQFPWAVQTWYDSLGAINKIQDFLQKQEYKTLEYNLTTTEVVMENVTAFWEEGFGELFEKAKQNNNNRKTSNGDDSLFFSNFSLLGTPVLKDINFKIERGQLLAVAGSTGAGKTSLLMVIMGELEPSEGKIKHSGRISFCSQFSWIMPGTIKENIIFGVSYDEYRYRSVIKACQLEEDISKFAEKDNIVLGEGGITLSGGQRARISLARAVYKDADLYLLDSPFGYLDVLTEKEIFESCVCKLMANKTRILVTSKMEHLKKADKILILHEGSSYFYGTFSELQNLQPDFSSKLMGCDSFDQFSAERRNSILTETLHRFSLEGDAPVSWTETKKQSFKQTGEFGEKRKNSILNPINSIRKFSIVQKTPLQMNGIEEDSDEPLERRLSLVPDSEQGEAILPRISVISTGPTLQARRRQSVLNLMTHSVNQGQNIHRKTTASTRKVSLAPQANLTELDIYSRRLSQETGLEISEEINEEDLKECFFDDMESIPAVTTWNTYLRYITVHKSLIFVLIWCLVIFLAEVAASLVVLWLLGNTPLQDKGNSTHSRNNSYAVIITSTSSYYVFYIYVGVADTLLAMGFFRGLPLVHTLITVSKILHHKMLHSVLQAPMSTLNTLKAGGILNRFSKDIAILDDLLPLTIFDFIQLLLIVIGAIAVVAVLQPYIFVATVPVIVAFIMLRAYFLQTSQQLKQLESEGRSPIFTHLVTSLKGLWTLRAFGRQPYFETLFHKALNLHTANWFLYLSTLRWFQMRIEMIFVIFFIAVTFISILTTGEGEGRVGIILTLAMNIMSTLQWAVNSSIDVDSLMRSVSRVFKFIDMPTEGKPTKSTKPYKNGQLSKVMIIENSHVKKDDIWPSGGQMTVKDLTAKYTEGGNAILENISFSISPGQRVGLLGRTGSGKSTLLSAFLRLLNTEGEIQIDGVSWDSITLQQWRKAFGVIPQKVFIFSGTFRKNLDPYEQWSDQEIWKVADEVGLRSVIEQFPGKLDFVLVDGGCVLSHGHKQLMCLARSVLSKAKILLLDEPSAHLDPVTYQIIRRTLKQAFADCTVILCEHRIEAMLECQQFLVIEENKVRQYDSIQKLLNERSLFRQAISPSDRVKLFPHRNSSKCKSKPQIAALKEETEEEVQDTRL
In a further test the target is T1, Caspase-3 (Homo sapiens, UniProt P42574).
T1 sequence (P42574 whole entry): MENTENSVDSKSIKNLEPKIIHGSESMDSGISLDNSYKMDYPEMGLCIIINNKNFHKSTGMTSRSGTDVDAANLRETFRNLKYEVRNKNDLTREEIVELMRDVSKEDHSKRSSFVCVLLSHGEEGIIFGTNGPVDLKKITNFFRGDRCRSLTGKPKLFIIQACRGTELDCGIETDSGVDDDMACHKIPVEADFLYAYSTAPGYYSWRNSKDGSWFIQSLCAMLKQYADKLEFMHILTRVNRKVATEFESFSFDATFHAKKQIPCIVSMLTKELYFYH
Briefly: activation of caspase-3 zymogen – biochemical, absorbance, dose response (AID 489014).

The next test has as its target Caspase-7 (Homo sapiens, UniProt P55210). Nature of the test: activation of caspase-7 zymogen – biochemical, absorbance, counter-screen for procaspase-3 activator project, dose response (AID 489013). (In general: A counterscreen serves to expose hits that act by an unwanted route or on another target.)
The next test deals with T2, Hexokinase-1 (Homo sapiens, UniProt P19367).
T2 sequence (P19367 whole entry): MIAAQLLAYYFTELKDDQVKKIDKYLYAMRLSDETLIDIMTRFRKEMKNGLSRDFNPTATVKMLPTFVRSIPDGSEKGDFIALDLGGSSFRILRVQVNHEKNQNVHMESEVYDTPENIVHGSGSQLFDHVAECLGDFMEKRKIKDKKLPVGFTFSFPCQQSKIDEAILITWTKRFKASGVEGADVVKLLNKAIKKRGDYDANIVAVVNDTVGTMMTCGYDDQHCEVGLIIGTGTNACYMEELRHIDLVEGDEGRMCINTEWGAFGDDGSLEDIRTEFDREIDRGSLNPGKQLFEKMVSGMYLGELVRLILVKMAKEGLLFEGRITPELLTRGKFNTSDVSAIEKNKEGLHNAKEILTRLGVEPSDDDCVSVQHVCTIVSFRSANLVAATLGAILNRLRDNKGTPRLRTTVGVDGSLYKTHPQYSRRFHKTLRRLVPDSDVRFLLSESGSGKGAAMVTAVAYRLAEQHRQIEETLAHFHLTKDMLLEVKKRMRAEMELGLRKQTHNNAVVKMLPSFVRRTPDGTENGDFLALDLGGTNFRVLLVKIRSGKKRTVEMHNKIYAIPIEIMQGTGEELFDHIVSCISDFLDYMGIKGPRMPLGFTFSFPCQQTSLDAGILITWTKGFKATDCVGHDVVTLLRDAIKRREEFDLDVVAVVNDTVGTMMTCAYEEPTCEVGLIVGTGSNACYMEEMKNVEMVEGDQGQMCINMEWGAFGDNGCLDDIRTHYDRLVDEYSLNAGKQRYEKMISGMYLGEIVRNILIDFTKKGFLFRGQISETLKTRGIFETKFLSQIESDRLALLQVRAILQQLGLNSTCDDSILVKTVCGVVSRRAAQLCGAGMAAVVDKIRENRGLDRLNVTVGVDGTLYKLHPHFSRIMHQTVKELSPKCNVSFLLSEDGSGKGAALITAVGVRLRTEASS
Nature of the test: hexokinase 1 activity inhibitors, potency – biochemical, set 2, resazurin fluorescence coupled readout, selectivity assay for HKDC1 inhibitor project, SAR follow-up (AID 588356). It is filed as functional.

Here are results for four molecules from ChEMBL document CHEMBL1201862, “PubChem BioAssay data set” (2004).

Active and inactive are the calls of the source. Some results are limits rather than exact numbers.

Chain of Caspase-7 (P55210 24-198 limits assumed): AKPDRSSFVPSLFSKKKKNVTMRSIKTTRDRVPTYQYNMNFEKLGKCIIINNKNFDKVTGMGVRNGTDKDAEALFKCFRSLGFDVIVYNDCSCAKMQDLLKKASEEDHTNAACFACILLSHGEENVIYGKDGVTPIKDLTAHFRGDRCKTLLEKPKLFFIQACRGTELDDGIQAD
Chain of Caspase-7 (P55210 207-303 limits assumed): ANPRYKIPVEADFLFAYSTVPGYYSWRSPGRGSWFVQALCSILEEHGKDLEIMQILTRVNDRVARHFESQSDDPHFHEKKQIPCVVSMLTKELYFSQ

The term AC50 denotes the concentration at which the activity in the assay is half-maximal. The term IC50 denotes the concentration that inhibits the measured activity by half. As usually defined, the EC50 is the concentration at which the effect is half-maximal. With `CCCCC(=O)NC(c1ccc(Cl)cc1)c1ccc2cccnc2c1O` (configuration not stated), the half-maximal activity concentration (AC50) in test [1] is 1.71 µM (active). In addition, the IC50 with Jurkat was 5.28 µM (active). In addition, in “cells”, the EC50 is 3.81 µM (active).

In the case of `COc1ccc2noc3c2c1C(=O)c1ccccc1-3`, the AC50 in test [2] was > 500 µM (inactive). `O=C(N/N=C/c1ccccc1O)/C(O)=C\C1=NC2(CCCC2)Cc2ccccc21`: the EC50 on Caspase-3 and on Caspase-7 was > 85.3 µM (inactive) each time. On to `CCc1ccc2c(c1)C(NC(C)=O)C(=O)N2CCN1CCOCC1` (configuration not stated), for which, on Hexokinase-1, the IC50 was > 80 µM (inactive).
